Test: Solubility of FT4 compounds and polymer in organic solvents
Assay type: physicochemical
Conditions: for solubility in diethyl ether / solubility in hexane: room temperature
Text: Table 2 provides solubility properties and a solubility comparison of di-Br compound 7 and di-tin compound 8.

Compound: CCCCCCCCCCCCCCCCCc1[c]([Sn]([CH3])([CH3])[CH3])sc2c1sc1c3s[c]([Sn]([CH3])([CH3])[CH3])c(CCCCCCCCCCCCCCCCC)c3sc21 [compound 8]
- solubility in hexane, toluene, CH2Cl2, or mixtures thereof (compared to the corresponding di-bromo compound Br-DC17FT4-Br): excellent solubility
- solubility in diethyl ether: freely soluble
- solubility in hexane: freely soluble

Compound: CCCCCCCCCCCCCCCCCc1c(Br)sc2c1sc1c3sc(Br)c(CCCCCCCCCCCCCCCCC)c3sc21 [compound 7]
- solubility in direct comparisons to compound 8 (Table 2 solvents): essentially insoluble or only partially soluble
- solubility in diethyl ether: practically insoluble
- solubility in hexane: practically insoluble
